This note sets out measurements from patent publication US20210017174A1, “IDENTIFICATION AND USE OF ERK5 INHIBITOR” (Bayer Aktiengesellschaft, priority 2018, published 2021).

For orientation: IC50 means the concentration at which inhibition is half-maximal.

Test [1] deals with SN12C-MEF2-luc (clone #37) reporter cell line. The test is described as follows: Luciferase reporter assay in SN12C-MEF2-luc cells (EGF-stimulated, MEF2-responsive luciferase).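 Also: serially diluted compounds at 37 °C, EGF with DMSO as maximum signal and EGF with a 10 µM reference inhibitor as minimum (full inhibition).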 The test is classed as cell-based. Particulars: Homo sapiens, 16 h compound incubation, then EGF 100 ng/ml for 2 h, ONE-Glo luminescence.
The next test deals with T1, ERK5 (Homo sapiens, UniProt Q13164).
T1 construct: host or cells: E. coli
The test is described as follows: TR-FRET-based Erk5 activity inhibition assay (biochemical assay ERK5). The following applies: TR-FRET, 250 μM ATP, 1 μM substrate peptide, 60 min at 22° C.; read-out: IC50 value biochemiocal ERK5 asssay. For orientation: TR-FRET usually uses a lanthanide donor and a delayed reading to cut background.

T1 sequence (Q13164 1-398): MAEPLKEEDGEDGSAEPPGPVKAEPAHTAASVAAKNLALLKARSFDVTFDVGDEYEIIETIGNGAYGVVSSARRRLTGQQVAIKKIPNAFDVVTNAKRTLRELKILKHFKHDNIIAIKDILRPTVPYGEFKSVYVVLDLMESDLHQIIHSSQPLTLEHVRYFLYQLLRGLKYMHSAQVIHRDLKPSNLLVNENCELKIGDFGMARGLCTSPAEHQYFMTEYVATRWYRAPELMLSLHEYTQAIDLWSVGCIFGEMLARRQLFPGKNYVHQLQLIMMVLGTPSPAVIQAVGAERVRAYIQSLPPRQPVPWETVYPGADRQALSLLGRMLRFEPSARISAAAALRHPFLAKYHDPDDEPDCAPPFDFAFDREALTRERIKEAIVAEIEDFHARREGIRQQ

On to `C=CCOc1ccc(C(=O)N2CCC(c3ncnc4cc(OC)c(OC)cc34)CC2)cc1` [Example 27, [4-(6,7-Dimethoxyquinazolin-4-yl)piperidin-1-yl][4-(prop-2-en-1-yloxy)phenyl]-methanone], for which the results for the IC50 (in test [1]; on ERK5) were 4910 nM and 401 nM, respectively.

For the molecule `O=C(c1ccc(OC(F)(F)F)cc1)N1CCC(c2ncnc3cc(N4CCCC4=O)ccc23)CC1` [Example 54, 1-(4-{1-[4-(Trifluoromethoxy)benzoyl]piperidin-4-yl}quinazolin-7-yl)pyrrolidin-2-one], the IC50 in test [1] turned out to be 942 nM; on ERK5 it was 190 nM.

In the case of `COC1CCN(c2cnc3c(C4CCN(C(=O)c5ccc(OC(F)(F)F)cc5)CC4)ncnc3c2)CC1` [Example 79, {4-[7-(4-Methoxypiperidin-1-yl)pyrido[3,2-d]pyrimidin-4-yl]piperidin-1-yl}[4-(trifluoromethoxy)phenyl]methanone], the IC50 in test [1] turned out to be 122 nM; on ERK5, 49.9 nM.

On to `O=C(c1ccc(OC(F)(F)F)cc1)N1CCC(c2ncnc3cc(-c4ccn[nH]4)ccc23)CC1` [Example 53, {4-[7-(1H-Pyrazol-5-yl)quinazolin-4-yl]piperidin-1-yl}[4-(trifluoromethoxy)-phenyl]methanone], for which the IC50 is 627 nM in test [1] and 78.1 nM on ERK5.

For `O=C(c1ccc(OC(F)(F)F)cc1)N1CCC(c2ncnc3cc(C4=CCOCC4)ccc23)CC1` [Example 52, {4-[7-(3,6-Dihydro-2H-pyran-4-yl)quinazolin-4-yl]piperidin-1-yl}[4-(trifluoro-methoxy)phenyl]-methanone], the results for the IC50 (in test [1]; on ERK5) were 500 nM and 24.7 nM, respectively.

Take `CC1(C)CN(c2cnc3c(C4CCN(C(=O)c5ccc(OC(F)(F)F)cc5)CC4)ncnc3c2)CCO1` [Example 78, {4-[7-(2,2-Dimethylmorpholin-4-yl)pyrido[3,2-d]pyrimidin-4-yl]piperidin-1-yl}[4-(trifluoromethoxy)phenyl]methanone]: the values for the IC50 (in test [1]; on ERK5) were 103 nM and 36.3 nM, respectively.

For `O=C(c1ccc(OC(F)(F)F)cc1)N1CCC(c2ncnc3cc(OC4CCOCC4)ccc23)CC1` [Example 49, {4-[7-(Tetrahydro-2H-pyran-4-yloxy)quinazolin-4-yl]piperidin-1-yl}[4-(trifluoromethoxy)phenyl]-methanone], the results for the IC50 (in test [1]; on ERK5) were 352 nM and 145 nM, respectively.

Regarding `O=C(c1ccc(OC(F)(F)F)cc1)N1CCC(c2ncnc3cc(OCCO)ccc23)CC1` [Example 47, {4-[7-(2-Hydroxyethoxy)quinazolin-4-yl]piperidin-1-yl}[4-(trifluoromethoxy)-phenyl]methanone], the IC50 in test [1] was 2450 nM; at ERK5 it was 110 nM.

On to `CC(=O)NCCOc1ccc2c(C3CCN(C(=O)c4ccc(OC(F)(F)F)cc4)CC3)ncnc2c1` [Example 50, N-{2-[(4-{1-[4-(Trifluoromethoxy)benzoyl]piperidin-4-yl}quinazolin-7-yl)oxy]ethyl}acetamide], for which the half-maximal inhibitory concentration (IC50) in test [1] was 387 nM; at ERK5, 167 nM.

Regarding `COc1cc2ncnc(C3CCN(C(=O)c4ccc(COC(F)(F)F)cc4)CC3)c2cc1OC` [Example 5, [4-(6,7-Dimethoxyquinazolin-4-yl)piperidin-1-yl]{4-[(trifluoromethoxy)methyl]phenyl}methanone], the IC50 in test [1] came out at 11300 nM; at ERK5 it was 1140 nM.

For the molecule `COc1cc2ncnc(C3CCN(C(=O)c4ccc(OC(C)(C)C)cc4)CC3)c2cc1OC` [Example 25, (4-Tert-butoxyphenyl)[4-(6,7-dimethoxyquinazolin-4-yl)piperidin-1-yl]methanone], the IC50 in test [1] came out at 6830 nM; at ERK5, 1030 nM.

In the case of `O=C(c1ccc(OC(F)(F)F)cc1)N1CCC(c2ncnc3cc(N4CCC(F)(F)C4)cnc23)CC1` [Example 72, {4-[7-(3,3-Difluoropyrrolidin-1-yl)pyrido[3,2-d]pyrimidin-4-yl]piperidin-1-yl}[4-(trifluoromethoxy)phenyl]methanone], the results for the IC50 (in test [1]; on ERK5) were 415 nM and 69.3 nM, respectively.
